Laboratory results taken from ChEMBL document CHEMBL1132305, “Effect of aromatic short-chain analogues of ceramide on axonal growth in hippocampal neurons” (1999).

Species: Rattus norvegicus
Assay: Effect on the growth of axons of hippocampal neurons stimulated by basic fibroblast growth factor (bFGF), no. of axonal branch points/cell at 51 hr upon incubation with bFGF 1.52 0.09
Assay type: functional

Compound	No. of axonal branch points/cell
CCCC[C@H](C)[C@@H](OC(=O)C[C@H](CC(=O)O)C(=O)O)[C@@H](C[C@H](C)C[C@@H](O)CCCC[C@@H](O)C[C@H](O)[C@H](C)N)OC(=O)C[C@H](CC(=O)O)C(=O)O	1.12
CCCCCCCC(=O)N[C@@H](CO)[C@H](O)/C=C/c1ccccc1	1.4
CCCCCCC/C=C/[C@@H](O)[C@H](CO)NC(=O)CCCCC	1.3
CC(=O)N[C@@H](CO)[C@H](O)/C=C/c1ccccc1	1.3
CCCCCCC/C=C/[C@H](O)[C@H](CO)NC(=O)CCCCC	1.18
CCCCCC(=O)N[C@@H](CO)[C@H](O)/C=C/c1ccccc1	1.45
CCCC(=O)N[C@@H](CO)[C@H](O)/C=C/c1ccccc1	1.38
CCCCCC(=O)N[C@@H](CO)[C@@H](O)/C=C/c1ccccc1	1.22
CCCCCCC/C=C/[C@@H](O)[C@H](CO)NC(C)=O	1.5
